For one assay, the system named is GNE myopathy mice. As to conditions: cited from earlier work; for Prevention of muscle disease in GNE myopathy mice: prophylactic, Malicdan et al., Nature Med 2009.
The test system of assay [1] is GNE myopathy mice skeletal muscle tissue. As to conditions: cited from earlier work; for Hyposialylation of GNE myopathy mice skeletal muscle tissue: Niethamer et al., Mol Genet Metab 2012.
In assay [2] the test system is heart tissue of GNE −/− mice. The experiment in a line: SNA lectin staining of heart sections (sialylation status). Particulars: ~1 year old GNE −/− mice treated since age 10 weeks with 2 g/kg/day; vs untreated GNE −/− mice. The format is in vivo. As for the experimental part: Mouse hearts or skeletal muscle (gluteus) were harvested and fixed in 4% paraformaldehyde for 48 hours at room temperature, dehydrated in 70% ethanol at 4° C., and paraffin-embedded for sectioning (Histoserv, Gaithersburg, Md.). Tissue sections (5 um) were stained with a variety of lectins, as previously described for mouse kidneys and muscle (Kakani et al., Am J Pathol 2012; 180: 1431-40; Niethamer et al., Mol Genet Metab 2012; 107: 748-55) as well as for GNE myopathy patients' muscle (Leoyklang et al., Biomarkers Med 2014; 8: 641-52). Lectin histochemistry was performed with fluorescein isothiocyanate (FITC) labeled lectins WGA and VVA from EY Laboratories (San Mateo, Calif.) and SNA from Vector Laboratories (Burlingame, Calif.). Each slide was also stained with the nuclear dye DAPI. Fluorescence imaging of multiple sections of heart per slide was performed under a Zeiss 510 META confocal laser-scanning microscope. All fluorescent images represent collapsed stacks of confocal Z-sections, imaged at 63× magnification.

For assay [3], the system named is GNE Myopathy myotubes. Description: ROS generation under pro-oxidants (H2O2 or menadione), ΔDCF fluorescence. It is filed as cell-based, mice. Particulars: GNE Myopathy myotubes incubated before and during exposure to H2O2 and menadione; vs untreated; p<0.01. As to the method:
(§1) Cell cultures and myotubes analysis: Myocytes from Gne^−/−hGNED176V-Tg mice and littermate controls were proliferated in DMEM containing 20% fetal bovine serum and 1% chicken embryo extracts in a 5% CO2 and induced to differentiation in a serum free medium, OPTIPRO™ SFM (Gibco), to make the cells hyposialylated. Where indicated, myotubes were treated with 5 mM NeuAc (Japan Food and Liquor Alliance) or 5 mM NAC (Sigma) for 72 h.
To evaluate the ROS generation under pro-oxidants, myotubes cultured in each condition were loaded with 5 μM DCFH-DA for 1 h and recovered in the different concentrations of H2O2 or menadione-containing medium. After 30 min incubation in dark at 37° C., the microplate containing cells with pro-oxidants were placed in a plate reader and fluorescence was captured at every 5 min until it reached a plateau. Maximum fluorescence of each well was used for analysis.

The subject of assay [4] is GNE Myopathy myotubes. The experiment in a line: Cell viability assay under pro-oxidants (propidium iodide/Hoechst co-staining). It is filed as cell-based, mice. Particulars: treated GNE Myopathy myotubes vs untreated; same concentrations of H2O2 or menadione. As for the experimental part: as §1
For the cell viability assay, myotubes were exposed to H2O2 for 24 h and to menadione for 6 h before staining. Nuclear staining with Hoechst 33342 (Thermo Scientific) and propidium iodide (PI) (Dojindo) was used for morphological assessment of apoptosis by fluorescence microscopy (Lee and Shacter, Journal of Biological Chemistry. 1999; 274:19792-19798). Minimum 200 nuclei were counted and cell viability was calculated by the exclusion of PI-stained nuclei from Hoechst 33342-stained nuclei.

Assay [5] deals with GNE Myopathy myotubes. The experiment in a line: Intracellular ROS (DCF fluorescence) in cultured myotubes. It is filed as cell-based, mice. As to conditions: GNE Myopathy myotubes treated with 5 mM for 72 h; mean±SEM; untreated 1113±30, littermate controls 115±15. As for the experimental part:
as §1
For the analysis of intracellular ROS, a popular fluorescence-based probe, 2′,7′-dichlorodihydrofluorescein diacetate (DCFH-DA) (Wang et al., Free Radical Biology and Medicine. 1999; 27:612-616; Halliwell and Whiteman, Br J Pharmacol. 2004; 142:231-255) was used. Cells were loaded with 5 μM DCFH-DA (Invitrogen) in PBS for an hour and recovered with phenol red-free DMEM (Gibco) for 30 min at 37° C. in a 5% CO2 incubator. Then the cells were placed in a CYTOFLUOR® Series 4000 multi-well fluorescence plate reader (PerSeptive Biosystems) with temperature maintained at 37° C. The excitation filter was set at 485 nm and the emission filter was set at 530 nm. The fluorescence from each well was captured and recorded.

Consider four compounds from US10493087B2, “Sialylation-increasing therapies for diseases associated with oxidative stress” (THE UNITED STATES OF AMERICA, AS REPRESENTED BY THE …, priority 2015, dated 2019).

For `CC(=O)NC1C(O)[C@H](O)C(CO)O[C@H]1O` (stereo partly shown) [ManNAc, N-acetyl mannosamine], in the assay with GNE myopathy mice, the “Prevention of muscle disease in GNE myopathy mice” value (from here on “Prevention of muscle disease”) was “prophylactically prevent muscle disease”. The “Hyposialylation of GNE myopathy mice skeletal muscle tissue” value (shortened to “Hyposialylation”) in assay [1] is reported as “rescue hyposialylation”. In assay [1] (oral 1 g/kg/day for 12 weeks, gastrocnemius, adapted from Niethamer et al., 2012), the “Sialylation status of skeletal muscle (SNA and VVA signal)” value was “restored the sialylation status back to the normal range”. For the same compound, the “Sialylation of glycans in heart tissue (SNA lectin staining)” value in assay [2] is “significantly increased sialylation”.
For `CC(=O)N[C@H]1[C@H]([C@H](O)[C@H](O)CO)OC(O)(C(=O)O)C[C@@H]1O` (stereo partly shown) [NeuAc, N-acetyl neuraminic acid], the “ΔDCF fluorescence increments on exposure to pro-oxidants” value in the assay on GNE Myopathy myotubes [3] is listed as “significantly decreased”. Further, the “Relative cell viability under pro-oxidants” value in the assay on GNE Myopathy myotubes [4] is “more resistant”. Moreover, the “Prevention of muscle disease” value in the assay on GNE myopathy mice is reported as “prophylactically prevent muscle disease”. The “Muscle force generation in treated mice” value in the assay with GNE myopathy mice (sialic acid supplement, Malicdan et al. 2009, 2008) is given as “increased in proportion to muscle fiber diameter”. Also, the “Hyposialylation” value in assay [1] was “rescue hyposialylation”. In addition, the “Sialylation of glycans in heart tissue (SNA lectin staining)” value in assay [2] is on record as “significantly increased sialylation”. In addition, in the assay on GNE Myopathy myotubes [5], the “Mean DCF fluorescence (intracellular ROS generation)” value is 349±19 AFU.
For the compound `N[C@@H]1C(O)O[C@H](CO)[C@@H](O)[C@@H]1O` (stereo partly shown) [mannosamine], in assay [1], the “Hyposialylation” value is recorded as “rescue hyposialylation”.
On to sialyllactose, for which, in the assay on GNE myopathy mice, the “Prevention of muscle disease” value is “prophylactically prevent muscle disease”.
